{
  "source": "patent US20020026053A1",
  "about": "“Novel 3-(substituted) -2- indolinones compounds and use thereof as inhibitors of protein kinase activity” (priority 1997, published 2002)",
  "system": "FLK-1 receptor",
  "experiment": "FLK-1 Assay (cellular/catalytic ELISA, VEGF-stimulated phosphotyrosine)",
  "format": "cell-based",
  "design": "concentration or dose not given beside the values",
  "details": "protocol P.110",
  "outline": "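Receptor phosphotyrosine ELISA: Flk-1-expressing NIH3T3 C7#3 cells, starved overnight in 0.1% FBS medium, received compound (1:200 final dilution, 0.5% DMSO) for 2 h at 37 °C, then VEGF. Anti-FLK-1-captured receptor was probed with anti-phosphotyrosine UB40 and peroxidase/ABTS read-out, relative to cells without compound.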",
  "data": [
    {"smiles": "Cc1c(Br)cc(Br)c2c1C(=Cc1cccc(Cl)c1)C(=O)N2", "note": "[10736/H06]", "values": [
      {"measurement": "Flk Kinase % Inhibition (P.110)", "value": 15.5, "unit": "%"}
    ]}
  ]
}
